Legend:
cotton = experiment: Preemergent control of plant species; type: in vivo, Gossypium spp.; conditions: Gossypium hirsutum, pre-emergence, 336 h; 0.25 lb/acre; read-out: percent preemergent control
Method in brief: (§1)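 Seeds sown in agricultural soil in greenhouse beds, then aqueous-emulsion compositions applied uniformly to the bed surface at listed rates. Beds kept two weeks under greenhouse growth conditions with watering. Control expressed as growth reduction versus water-treated beds of the same species.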

rape = experiment: Preemergent control of plant species; type: in vivo, Brassica napus; conditions: Brassica napus, pre-emergence, 336 h; 0.25 lb/acre; read-out: percent preemergent control
Method in brief: as §1

soybean = experiment: Preemergent control of plant species; type: in vivo, Glycine max.; conditions: Glycine max, pre-emergence, 336 h; 0.25 lb/acre; read-out: percent preemergent control
Method in brief: as §1

sugar beet = experiment: Preemergent control of plant species; type: in vivo, Beta saccharifera; conditions: Beta vulgaris, pre-emergence, 336 h; 0.25 lb/acre; read-out: percent preemergent control
Method in brief: as §1

jimsonweed = experiment: Preemergent control of plant species; type: in vivo, Datura stramonium; conditions: Datura stramonium, pre-emergence, 336 h; 0.25 lb/acre; read-out: percent preemergent control
Method in brief: as §1

annual morning glory = experiment: Preemergent control of plant species; type: in vivo, Ipomoea spp.; conditions: Ipomoea, pre-emergence, 336 h; 0.25 lb/acre; read-out: percent preemergent control
Method in brief: as §1

pigweed = experiment: Preemergent control of plant species; type: in vivo, Amaranthus spp.; conditions: Amaranthus retroflexus, pre-emergence, 336 h; 0.25 lb/acre; read-out: percent preemergent control
Experimental: (§2) The seeds of various species of plants were planted in beds of good agricultural soil in a greenhouse. A number of compositions of the present invention, generally in the nature of an aqueous emulsion, were applied at rates listed in the table so as to deposit a predetermined amount of active ingredients uniformly throughout the surface of the bed. Another seed bed was treated only with water to serve as a control. After treatment the seed beds were maintained for two weeks under greenhouse conditions conducive for good plant growth and watered as necessary. Control refers to the reduction in growth compared to the observed results of the same untreated species.

velvetleaf = experiment: Preemergent control of plant species; type: in vivo, Abutilon theophrasti; conditions: Abutilon theophrasti, pre-emergence, 336 h; 0.25 lb/acre; read-out: percent preemergent control
Method in brief: as §1

corn = experiment: Preemergent control of plant species; type: in vivo, Zea mays; conditions: Zea mays, pre-emergence, 336 h; 0.25 lb/acre; read-out: percent preemergent control
Method in brief: as §1

rice [1] = experiment: Preemergent control of plant species; type: in vivo, Oryza sativa; conditions: Oryza sativa, pre-emergence, 336 h; 0.25 lb/acre; read-out: percent preemergent control
Method in brief: as §1

wheat = experiment: Preemergent control of plant species; type: in vivo, Triticum aestivum; conditions: Triticum aestivum, pre-emergence, 336 h; 0.25 lb/acre; read-out: percent preemergent control
Method in brief: as §1

barnyardgrass [2] = experiment: Preemergent control of plant species; type: in vivo, Echinochloa crusgalli; conditions: Echinochloa crus-galli, pre-emergence, 336 h; 0.25 lb/acre; read-out: percent preemergent control
Method in brief: as §1

crabgrass = experiment: Preemergent control of plant species; type: in vivo, Digitaria spp.; conditions: Digitaria sanguinalis, pre-emergence, 336 h; 0.25 lb/acre; read-out: percent preemergent control
Experimental: as §2

johnson grass = experiment: Preemergent control of plant species; type: in vivo, Sorghum halepense; conditions: Sorghum halepense, pre-emergence, 336 h; 0.25 lb/acre; read-out: percent preemergent control
Method in brief: as §1

wild oats = experiment: Preemergent control of plant species; type: in vivo; conditions: Avena fatua, pre-emergence, 336 h; 0.25 lb/acre; read-out: percent preemergent control
Method in brief: as §1

yellow foxtail = experiment: Preemergent control of plant species; type: in vivo, Setaria lutescens; conditions: Setaria, pre-emergence, 336 h; 0.25 lb/acre; read-out: percent preemergent control
Method in brief: as §1

yellow nutsedge [3] = experiment: Preemergent control of plant species; type: in vivo, Cyperus esculentus; conditions: Cyperus, pre-emergence, 336 h; 0.25 lb/acre; read-out: percent preemergent control
Method in brief: as §1

rice [4] = experiment: Control of aquatic plant species (paddy water); type: in vivo, Oryza sativa; conditions: Oryza sativa, 216 h, nine days, read-out: Percent control
Method in brief: (§3)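 Plants transplanted at 1-2 inch stage into soil, flooded about 1 inch deep; acetone concentrate of compound injected into paddy water at varied volumes to set concentration. Percent control scored nine days after application.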

barnyardgrass [5] = experiment: Control of aquatic plant species (paddy water); type: in vivo, Echinochloa crusgalli; conditions: Echinochloa crus-galli, 216 h, nine days, read-out: Percent control
Experimental: In testing for such utility, the plant species to be tested were transplanted into 16 oz. containers into about 2 inches of soil when they were in the 1-2 inch stage and then flooded to a depth of about 1 inch. An acetone concentrate of the chemical to be tested was then injected into the paddy water, the volume injected being varied as desired to provide the desired concentration. Percent control was evaluated nine days after application.

sprangletop = experiment: Control of aquatic plant species (paddy water); type: in vivo, Leptochloa filiformis; conditions: Leptochloa filiformis, 216 h, nine days, read-out: Percent control
Method in brief: as §3

yellow nutsedge [6] = experiment: Control of aquatic plant species (paddy water); type: in vivo, Cyperus esculentus; conditions: Cyperus, 216 h, nine days, read-out: Percent control
Method in brief: as §3

[7] = tested on: nitrification of ammonium nitrogen; experiment: Suppression of nitrification of ammonium nitrogen in soil; conditions: 27° C.
Method in brief: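 Soil (20 g) moistened to its 1/3 bar tension value, mixed with test chemical and incubated sealed for two weeks at 27° C. Nitrate extracted with ammonium sulfate solution and measured by nitrate-specific ion electrode; value given as % NH4-N remaining.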

sorghum = experiment: Preemergent control of plant species; type: in vivo, Sorghum vulgare; conditions: Sorghum, pre-emergence, 336 h; 0.25 lb/acre; read-out: percent preemergent control
Method in brief: as §1

Compound	plant injury at 280.212 g/ha (cotton) [%]	plant injury at 280.212 g/ha (rape) [%]	plant injury at 280.212 g/ha (soybean) [%]	plant injury at 280.212 g/ha (sugar beet) [%]	pest or weed control at 280.212 g/ha (jimsonweed) [%]	pest or weed control at 280.212 g/ha (annual morning glory) [%]	pest or weed control at 280.212 g/ha (pigweed) [%]	pest or weed control at 280.212 g/ha (velvetleaf) [%]	plant injury at 280.212 g/ha (corn) [%]	plant injury at 280.212 g/ha (rice [1]) [%]	plant injury at 280.212 g/ha (wheat) [%]	pest or weed control at 280.212 g/ha (barnyardgrass [2]) [%]	pest or weed control at 280.212 g/ha (crabgrass) [%]	pest or weed control at 280.212 g/ha (johnson grass) [%]	pest or weed control at 280.212 g/ha (wild oats) [%]	pest or weed control at 280.212 g/ha (yellow foxtail) [%]	pest or weed control at 280.212 g/ha (yellow nutsedge [3]) [%]	% NH4-N Remaining After 2 Weeks Incubation ([7]; 1 ppm) [%]	plant injury at 280.212 g/ha (sorghum) [%]	% NH4-N Remaining After 2 Weeks Incubation ([7]; 0.1 ppm) [%]	other results
Cc1cc(C)n2nc(S(=O)(=O)Nc3c(F)cccc3F)nc2n1 [Compound 25, 5,7-Dimethyl-N-(2,6-difluorophenyl)-1,2,4-triazolo[1,5-a]pyrimidine-2-sulfonamide]	98	100	98	100	98	80	100	98	100	100	70	98	100	98	95	100	95	79	–	–	pest or weed control at 250 g/ha (rice [4]; 0.25 Kg/Ha): 97%; pest or weed control at 250 g/ha (barnyardgrass [5]; 0.25 Kg/Ha): 95%; pest or weed control at 250 g/ha (sprangletop; 0.25 Kg/Ha): 0%; pest or weed control at 250 g/ha (yellow nutsedge [6]; 0.25 Kg/Ha): 90%; % NH4-N Remaining After 2 Weeks Incubation ([7]; 0.06 ppm): 31%; % NH4-N Remaining After 2 Weeks Incubation ([7]; 0.125 ppm): 46%; % NH4-N Remaining After 2 Weeks Incubation ([7]; 0.25 ppm): 48%; % NH4-N Remaining After 2 Weeks Incubation ([7]; 0.5 ppm): 73%
Cc1cc(C)n2nc(S(=O)(=O)Nc3c(C)cccc3Cl)nc2n1 [Compound 31]	80	98	95	100	65	100	95	95	95	98	98	100	100	100	98	100	–	86	50	66	pest or weed control at 125 g/ha (rice [4]; 0.125 Kg/Ha): 90%; pest or weed control at 125 g/ha (barnyardgrass [5]; 0.125 Kg/Ha): 97%; pest or weed control at 125 g/ha (sprangletop; 0.125 Kg/Ha): 45%; pest or weed control at 125 g/ha (yellow nutsedge [6]; 0.125 Kg/Ha): 97%; % NH4-N Remaining After 2 Weeks Incubation ([7]; 0.01 ppm): 34%; % NH4-N Remaining After 2 Weeks Incubation ([7]; 10 ppm): 91%
COc1cc(C)n2nc(S(=O)(=O)Nc3c(Cl)cccc3Cl)nc2n1 [Compound 178]	65	80	0	95	0	10	60	40	0	0	–	25	0	0	–	0	0	43	0	0	pest or weed control at 2000 g/ha (rice [4]; 2.0 Kg/Ha): 50%; pest or weed control at 2000 g/ha (barnyardgrass [5]; 2.0 Kg/Ha): 20%; pest or weed control at 2000 g/ha (sprangletop; 2.0 Kg/Ha): 0%; pest or weed control at 2000 g/ha (yellow nutsedge [6]; 2.0 Kg/Ha): 90%; % NH4-N Remaining After 2 Weeks Incubation ([7]; 10 ppm): 91%

— patent publication US4740233A, “Substituted 1,2,4-triazolo[1,5-a]-pyrimidine-2-sulfonamides and compositions and methods of controlling undesired vegetation and suppressing the nitrification of ammonium nitrogen in soil” (The Dow Chemical Company, priority 1986, dated 1988)
